These results are taken from patent US20030134848A1, “Substituted 1-aza-2-imino-heterocycles and their use as nicotinic acetylcholin receptors activators” (priority 2000, published 2003).

T1 sequence (P43681 29-627 limits assumed): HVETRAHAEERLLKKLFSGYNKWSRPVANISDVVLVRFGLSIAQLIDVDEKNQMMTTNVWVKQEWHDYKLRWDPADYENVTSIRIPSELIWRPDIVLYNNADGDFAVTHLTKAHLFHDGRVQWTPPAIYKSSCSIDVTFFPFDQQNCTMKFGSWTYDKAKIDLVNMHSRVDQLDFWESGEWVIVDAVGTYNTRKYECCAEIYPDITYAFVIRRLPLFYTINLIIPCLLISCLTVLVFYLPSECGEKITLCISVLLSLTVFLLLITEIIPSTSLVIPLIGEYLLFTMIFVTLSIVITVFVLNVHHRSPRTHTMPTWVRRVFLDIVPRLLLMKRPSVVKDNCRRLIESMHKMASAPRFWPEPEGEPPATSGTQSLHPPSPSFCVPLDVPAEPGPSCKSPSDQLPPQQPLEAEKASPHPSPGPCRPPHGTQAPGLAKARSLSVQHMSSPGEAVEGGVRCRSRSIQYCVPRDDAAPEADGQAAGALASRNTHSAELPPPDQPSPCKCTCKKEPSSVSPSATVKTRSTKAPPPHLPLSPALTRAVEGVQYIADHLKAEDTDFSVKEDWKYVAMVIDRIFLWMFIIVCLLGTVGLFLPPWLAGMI
T1 sequence (P17787 26-502): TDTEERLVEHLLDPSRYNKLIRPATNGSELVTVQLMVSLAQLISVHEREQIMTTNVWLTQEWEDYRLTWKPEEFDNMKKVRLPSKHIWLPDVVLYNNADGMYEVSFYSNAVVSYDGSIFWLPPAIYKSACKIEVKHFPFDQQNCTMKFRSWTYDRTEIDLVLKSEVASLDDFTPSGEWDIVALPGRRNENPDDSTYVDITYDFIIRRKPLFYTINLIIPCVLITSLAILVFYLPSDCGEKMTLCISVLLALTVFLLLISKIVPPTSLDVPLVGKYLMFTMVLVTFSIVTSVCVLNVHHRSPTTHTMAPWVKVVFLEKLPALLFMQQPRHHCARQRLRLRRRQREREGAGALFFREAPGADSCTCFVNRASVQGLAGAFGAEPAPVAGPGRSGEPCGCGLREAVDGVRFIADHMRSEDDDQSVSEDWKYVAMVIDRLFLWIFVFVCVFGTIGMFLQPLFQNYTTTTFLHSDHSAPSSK

One test has as its target T1, human α4β2 subtype of nicotinic acetylcholine receptors (Homo sapiens, UniProt P17787+P43681).
T1 construct: expressed in transfected cells; host or cells: Xenopus laevis oocytes injected with hnACh-R α4 and β2 cRNA (pSP64 polyA vector)
As to the kind of experiment: Agonist activity at human α4β2 nicotinic acetylcholine receptors expressed in Xenopus oocytes (membrane potential holding method). Format: cell-based. As to conditions: 100 μM test compound vs response at 10 μM acetylcholine (100%). On the procedure: The agonist effect in human α4β2 subtype of nicotinic acetylcholine receptors are examined by using human nicotinic acetylcholine receptors prepared in oocytes of Xenopus laevis, which is injected with cRNA from the corresponding cloning cDNA of human α4 and β2 subunits of nicotinic acetylcholine receptors, and to measure the expression of the electric response by adding the test compounds to perfusion solution by means of membrane potential holding method.
The agonist activities of the compounds of the present invention at human 4β2 subtype of nicotinic acetylcholine receptors was evaluated by the following method, which was modified method described by Papke R. L., Thinschmidt J. S., Moulton B. A., Meyer E. M. & Poirier A., Br. J. Pharmacol., 120, 429-438 (1997).
(1) Preparation of cRNA of Human α4β2 Subtype of Nicotinic Acetylcholine Receptors
The cloning of human nicotinic acetylcholine receptor (hnACh-R) α4 cDNA and hnAC-R β2 cDNA were performed, in accordance with the conventional manners, by synthesizing the each DNA primers corresponding to the sequences of hnACh-R α4 cDNA and hnACh-R β2 cDNA [Monteggia L. M. et al., Gene, 155, 189-193 (1995); and Anand R., & Lindstrom J., Nucl. Acids Res., 18, 4272 (1990)], and obtained hnACh-R α4 cDNA and hnACh-R β2 cDNA by polymerase chain reaction (PCR), respectively. The obtained hnACh-R α4 cDNA and hnACh-R β2 cDNA were inserted to the cRNA expression vector (pSP64 polyA) having SP6 RNA promoter to construct hnACh-R α4/pSP64 polyA and hnACh-R β2/pSP64 polyA, respectively. After cutting from expression vector by restriction enzyme (EcoRI), transcription was performed by affecting SP6 RNA polymerase in the presence of cap analogues to obtain hnACh-R α4 cRNA and hnACh-R β2 cRNA, respectively.
(2) Expression of Human α4β2 Subtype Nicotinic Acetylcholine Receptors in Xenopus oocytes
Oocytes were purchased from Kitanihonseibutsukyohzai Co., Ltd., which were already enucleated from Xenopus laevis, and used in this experiment.
The oocytes were treated with collagenase (Sigma type I; 1 mg/ml) in calcium-free modified Birth's solution (88 mM of NaCl, 1 mM of KCl, 2.4 mM of NaHCO3, 0.82 mM of MgSO4, 15 mM of HEPES, pH 7.6) under gently stirring at room temperature for 90 minutes, and washed out the enzyme from the tissue. Then, oocytes were separated from ovarian follicle by tweezers, and isolated oocytes were placed in antibiotics containing modified Birth's solution (88 mM of NaCl, 1 mM of KCl, 2.4 mM of NaHCO3, 0.82 mM of MgSO4, 15 mM of HEPES, pH 7.6, and 0.1 v/v % of mixture solution containing of penicillin and streptomycin for incubation; Sigma Co.). […] In oocytes, heterogeneous quintuple [(α4)2(β2)3] was composed by translation of injected cRNAs, and ion channel receptors were constructed on cell membrane.
(3) Agonist Activities at Human α4β2 Subtype of Nicotinic Acetylcholine Receptors
The recordings of responses at human α4β2 subtype of nicotinic acetylcholine receptors by means of membrane potential holding method were performed as follow. […] The membrane electric potentials were held at −50 mV by mean of the two electric membranes potential holding method (CEZ-1250; Nihon Kohden Co.). Test compounds were added to the perfusion solution, and recorded the peak strength of induced inward current. In order to normalize the responses of test compounds, the responses with acetylcholine (Ach) were recorded before and after application of the test compounds. Generally in the oocytes just after isolated, the response of intrinsic muscarinic acetylcholine receptors, which is inward electric current caused by activation of calcium dependence chloride ion channels with increase of the intracellular calcium concentration by stimulation of receptors, is observed.
As to `N=C1NCCCN1CCc1ccc(Cl)nc1` [Compound 12, 1-[2-(6-chloro-3-pyridyl)ethyl]-2-imino-1,2,3,4,5,6-hexahydro-pyrimidine], the “control % by response at 100 μM of the test compounds” value is on record as “(8%)”.

With `Nc1nccn1CCc1cnccn1` [Compound 31, 2-amino-1-[2-(2-pyrazinyl)ethyl]imidazole], the “control % by response at 100 μM of the test compounds” value is listed as “(15%)”.

The test is the same for the next values; noted with them: Xenopus oocytes, held at −50 mV, peak inward current; read-out: Agonist activity (ED50).
On to `Cc1ccc(CCn2ccnc2N)cn1` [Compound 11, 2-amino-1-[2-(6-methyl-3-pyridyl)ethyl]imidazole], for which the EC50 is 7.5 µM.

For `Nc1nccn1CCc1cnc(Cl)c(Cl)c1` [Compound 13, 2-amino-1-[2-(5,6-dichloro-3-pyridyl)ethyl]-imidazole], the EC50 stood at 2.4 µM. Still for that read-out and setting: as for `Nc1nccn1CCc1cccnc1` [Compound 14, 2-amino-1-[2-(3-pyridyl)ethyl]imidazole], the figure is 2 µM; as for `Nc1nccn1CCc1cnc(Cl)s1` [Compound 23, 2-amino-1-[2-(2-chloro-5-thiazolyl)ethyl]imidazole], 13 µM. The same measure, in the same setting: in the case of `Nc1nccn1CCc1cncc(Br)c1` [Compound 25, 2-amino-1-[2-(5-bromo-3-pyridyl)ethyl]imidazole] it was 3 µM; in that of `Cc1cncc(CCn2ccnc2N)c1` [Compound 27, 2-amino-1-[2-(5-methyl-3-pyridyl)ethyl]imidazole], 6.2 µM. On the same count and under the same terms, as for `Nc1nccn1CCc1cncnc1` [Compound 29, 2-amino-1-[2-(5-pyrimidyl)ethyl]imidazole], the figure is 3.7 µM; as for `Nc1nccn1CCc1cccnn1` [Compound 30, 2-amino-1-[2-(3-pyridazinyl)ethyl]imidazole], 46 µM; as for `Nc1nccn1CCc1ccnnc1` [Compound 34, 2-amino-1-[2-(4-pyridazinyl)ethyl]imidazole], 170 µM.
